Laboratory results from patent US5455271A, “Tight-binding inhibitors of leukotriene A4 hydrolase” (The Scripps Research Institute, priority 1993, dated 1995).
“Also recorded” adds a separate entry of the source. Counter-ions that a name gives are not always drawn. Like-named read-outs stand apart in the source and are kept apart here.

Legend:
LTA4 hydrolase = target: T1, LTA4 hydrolase (Homo sapiens, UniProt P09960); test: Inhibition of LTA4 hydrolase, amidase (aminopeptidase) activity, L-alanyl p-nitroanilide as substrate; type: biochemical; design: LTA4 hydrolase purified from human leukocytes; from tissue; host or cells: human leukocytes (purified enzyme); conditions: for Ki: Dixon plot
T1 sequence (P09960 1-611): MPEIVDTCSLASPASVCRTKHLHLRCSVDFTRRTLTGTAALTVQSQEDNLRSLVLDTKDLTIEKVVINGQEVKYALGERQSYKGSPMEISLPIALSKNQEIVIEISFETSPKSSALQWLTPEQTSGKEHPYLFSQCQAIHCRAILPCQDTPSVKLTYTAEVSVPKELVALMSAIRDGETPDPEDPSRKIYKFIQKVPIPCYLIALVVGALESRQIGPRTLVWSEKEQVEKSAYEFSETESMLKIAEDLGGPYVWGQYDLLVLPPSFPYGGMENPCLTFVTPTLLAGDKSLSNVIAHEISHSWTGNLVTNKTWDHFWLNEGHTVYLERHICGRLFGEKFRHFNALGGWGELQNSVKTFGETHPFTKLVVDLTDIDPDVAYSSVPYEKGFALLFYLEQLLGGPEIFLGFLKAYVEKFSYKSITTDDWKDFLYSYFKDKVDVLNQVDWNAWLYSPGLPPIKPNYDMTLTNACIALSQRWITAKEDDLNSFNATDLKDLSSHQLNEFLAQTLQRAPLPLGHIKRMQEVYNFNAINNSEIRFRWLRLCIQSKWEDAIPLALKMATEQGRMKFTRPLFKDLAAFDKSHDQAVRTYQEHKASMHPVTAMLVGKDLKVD
Procedure: ^a All assays were performed in TrisHCl buffer (0.05 M, pH 8.0) with
Lalanyl pnitroanilide (1.5 mM) as substrate unless otherwise indicated.
for each assay (final volume = 1.0 mL). pNitroaniline formation was
monitored spectrophotometrically at 405 nm. Thiol compounds were assayed
in the presence of 5 mM DTT. The values shown are within ± 5 percent
accuracy. Dixon plot was used to determine the Ki values.

Thromboxane B2 (TXB2) = test: Inhibition of thromboxane B2 (TXB2) in calcium ionophore A-23187-stimulated human blood; type: cell-based; conditions: read-out: % Inhibition TXB2; for inhibition at 1 µM: Table 3, 1 μM; for inhibition at 3 µM: Table 3, 3 μM
Procedure: (§1) Blood was drawn from a human volunteer, and a compound solution at one of three concentrations (Table 3) or a single concentration (Table 4), or solution alone (vehicle) was added to a one ml aliquot of the blood. After incubation for 15 minutes, 14 μg of calcium ionophore A-23187 (as the free acid) was added, and the incubation continued for another 15 minutes. The reactions were stopped by immersion of the containers into slush ice, and the samples were centrifuged at 11,000 ×g to pellet red cells and leukocytes. An aliquot of the plasma was then assayed for the presence of thromboxane B2 or leukotriene B4 by standard radioimmunoassay techniques.

Leukotriene B4 (LTB4) = test: Inhibition of leukotriene B4 (LTB4) in calcium ionophore A-23187-stimulated human blood; type: cell-based; conditions: Homo sapiens
Procedure: as §1

[1] = L-alanyl p-nitroanilide 1.5 mM, pH 8.0
[2] = Table 3, read-out: % Inhibition LTB4
[3] = Table 4, read-out: % Inhibition LTB4
[4] = L-alanyl p-nitroanilide 1.5 mM, pH 8.0, thiols with 5 mM DTT

Compound: COC(=O)[C@H](O)[C@@H](N)Cc1ccccc1 [Compound 1, (2R, 3S)-AHPA methyl ester]
- inhibition of LTA4 hydrolase (in words) (LTA4 hydrolase): poor or no inhibition

Compound: COC(=O)[C@@H](O)[C@@H](N)Cc1ccccc1 [Compound 2, (2S, 3S)-AHPA methyl ester]
- Ki (LTA4 hydrolase; [1]): 50 µM

Compound: COC(=O)[C@@H](O)[C@H](N)Cc1ccccc1 [Compound 3, (2S, 3R)-AHPA methyl ester]
- inhibition of LTA4 hydrolase (in words) (LTA4 hydrolase): poor or no inhibition; also recorded: exhibited no activity

Compound: COC(=O)[C@H](O)[C@H](N)Cc1ccccc1 [Compound 4, (2R, 3R)-AHPA methyl ester]
- inhibition of LTA4 hydrolase (in words) (LTA4 hydrolase): poor or no inhibition

Compound: N[C@@H](Cc1ccccc1)[C@H](O)C(=O)O [Compound 5, (2S,3S)-AHPA]
- inhibition of LTA4 hydrolase (in words) (LTA4 hydrolase): loss of their inhibition potency

Compound: N[C@H](Cc1ccccc1)[C@H](O)C(=O)O [Compound 6, (2S,3R)-AHPA]
- inhibition of LTA4 hydrolase (in words) (LTA4 hydrolase): loss of their inhibition potency

Compound: CC(C)C[C@H](NC(=O)[C@@H](O)[C@@H](N)Cc1ccccc1)C(=O)O [Compound 7, (2S, 3S)-AHPA-L-Leu]
- inhibition at 1 µM (Thromboxane B2 (TXB2)): 21%
- inhibition at 3 µM (Thromboxane B2 (TXB2)): 15%
- inhibition at 10 µM (Thromboxane B2 (TXB2); Table 3, 10 μM): 24%
- inhibition at 10 µM (Thromboxane B2 (TXB2); Table 4, 10 μM): 0%
- inhibition at 3 µM (Leukotriene B4 (LTB4); [2]): 10%
- inhibition at 10 µM (Leukotriene B4 (LTB4); [2]): 37%
- inhibition at 10 µM (Leukotriene B4 (LTB4); [3]): 25%

Compound: N[C@@H](Cc1ccccc1)[C@H](O)C(=O)NCC(=O)O [Compound 8, (2S, 3S) -AHPA-Gly]
- Ki (LTA4 hydrolase; [1]): 15 µM
- IC50 (LTA4 hydrolase; [4]): 15 µM

Compound: N[C@H](Cc1ccccc1)[C@H](O)C(=O)NCCC(=O)O [Compound 9]
- IC50 (LTA4 hydrolase; [4]): 100 µM

Compound: N[C@@H](Cc1ccccc1)[C@H](O)C(=O)NCCC(=O)O [Compound 10, (2S, 3S) -AHPA-β-Ala]
- inhibition at 1 µM (Thromboxane B2 (TXB2)): 12%
- inhibition at 3 µM (Thromboxane B2 (TXB2)): 21%
- inhibition at 10 µM (Thromboxane B2 (TXB2); Table 3, 10 μM): 19%
- IC50 (LTA4 hydrolase; [4]): 80 µM
- inhibition at 1 µM (Leukotriene B4 (LTB4); Table 3, 1 μM, read-out: % Inhibition LTB4): 14%
- inhibition at 3 µM (Leukotriene B4 (LTB4); [2]): 39%
- inhibition at 10 µM (Leukotriene B4 (LTB4); [2]): 15%

Compound: COC(=O)C(S)[C@@H](N)Cc1ccccc1 (stereo partly drawn) [Compound 11]
- inhibition of LTA4 hydrolase (in words) (LTA4 hydrolase): poor inhibitors

Compound: COC(=O)C(S)[C@H](N)Cc1ccccc1 (stereo partly drawn) [Compound 12]
- inhibition of LTA4 hydrolase (in words) (LTA4 hydrolase): poor inhibitors

Compound: NC(Cc1ccccc1)P(=O)(O)NCC(=O)O (stereo not drawn) [Compound 16]
- inhibition of LTA4 hydrolase (in words) (LTA4 hydrolase): a much weaker inhibitor than Compound 8

Compound: CCOC(=O)CC(F)(F)C(=O)/C=C/c1ccccc1 [Compound 17]
- inhibition of the enzyme at 1 mM concentration (in words) (LTA4 hydrolase): did not inhibit the enzyme

Compound: CCOC(=O)C(F)(F)C(=O)c1nc[nH]c1C [Compound 18]
- inhibition of the enzyme at 1 mM concentration (in words) (LTA4 hydrolase): did not inhibit the enzyme
- IC50 (LTA4 hydrolase; footnote d: less than 10 percent inhibition was observed at this concentration): > 1000 µM

Compound: CC(C)C[C@H](NC(=O)C(=O)[C@@H](N)Cc1ccccc1)C(=O)O [Compound 22]
- inhibition of LTA4 hydrolase (in words) (LTA4 hydrolase): better than the corresponding α-(S)--OH derivative Compound 7
- IC50 (LTA4 hydrolase; [4]): 0.5 µM

Compound: COC(=O)[C@@H](O)[C@@H](N)Cc1ccc(OCc2ccccc2)cc1 [Compound 23]
- IC50 (LTA4 hydrolase; [4]): 20 µM

Compound: NC(CSSCC(N)Cc1ccc(OCc2ccccc2)cc1)Cc1ccc(OCc2ccccc2)cc1 [Compound 27a, Di-((2S)-3-[4-(benzyloxy)phenyl]-2-amino-propane)-disulphide HCl]
- inhibition at 10 µM (Thromboxane B2 (TXB2); Table 4, 10 μM): 24%
- inhibition at 10 µM (Leukotriene B4 (LTB4); [3]): 100%
- IC50 (Leukotriene B4 (LTB4); concentrations of about 0.3-10 μM, readout not restated, read-out: IC50 in this assay (human blood)): ~0.81 µM

Compound: N[C@@H](Cc1ccccc1)[C@H](O)Cc1ccccc1 [Compound 44, (2R, 3S)-1,4-Diphenyl-2-hydroxy-3-amino-butane HCl]
- IC50 (LTA4 hydrolase; [4]): 140 µM

Compound: N[C@@H](Cc1ccc(OCc2ccccc2)cc1)C(=O)CCCc1ccccc1 [Compound 54, (2S)-1-[4-(Benzyloxy)phenyl]-6-phenyl-2-amino-3-oxo-hexane HCl]
- IC50 (LTA4 hydrolase; [1]): 0.03 µM

Compound: NC[C@@H](N)Cc1ccc(OCc2ccc3ccccc3c2)cc1 [Compound 60, (2S) -3-[4-(2-Naphthylmethyloxy)phenyl]-1,2-diamino-propane HCl]
- IC50 (LTA4 hydrolase; [4]): 0.55 µM

Compound: COC(=O)[C@@H](O)[C@H](Cc1ccccc1)NC(=O)OC(C)(C)C [N-Boc-2S, 3S)-AHPA methyl ester, N-Boc-(2S, 3S) -AHPA methyl ester]
- inhibition of LTA4 hydrolase (in words) (LTA4 hydrolase): no inhibition activity
